From patent US10774065B2, “1-pyridazin-/triazin-3-yl-piper(-azine)/idine/pyrolidine derivatives and compositions thereof for inhibiting the activity of SHP2” (NOVARTIS AG, priority 2014, dated 2020)

Molecular target: SHP2 (Homo sapiens (Human), UniProt Q06124)
Test: SHP2 Allosteric Inhibition Assay (DiFMUP prompt fluorescence)
Format: biochemical
Conditions: 0.5 nM SHP2 activated with 0.5 μM peptide IRS1_pY1172(dPEG8)pY1222; substrate DiFMUP; 25° C.

| IC50 [nM] | SMILES |
| --- | --- |
| 164 | C[C@]1(CN)CCN(c2cnc(-c3cccc(Cl)c3Cl)c(N)n2)C[C@H]1O (single isomer, unassigned) [11 P2] |
| 38 | C[C@]1(CN)CCN(c2cnc(-c3cccc(Cl)c3Cl)c(N)n2)C[C@H]1O (single isomer, unassigned) [11 P1] |
